Data from ChEMBL document CHEMBL2413072, “Synthesis and in vitro anticancer studies of novel C-2 arylidene congeners of lantadenes” (2013).

How the values were obtained:
Format in all cases: functional
[1] = system: DU-145; experiment: Growth inhibition of human DU145 cells assessed as growth inhibition at 10 uM by sulforhodamine B assay; conditions: read-out: GI
[2] = system: CCRF-CEM; experiment: Growth inhibition of human CCRF-CEM cells assessed as cell growth at 10 uM by sulforhodamine B assay; conditions: read-out: Activity
[3] = system: SN12C; experiment: Growth inhibition of human SN12C cells assessed as cell growth at 10 uM by sulforhodamine B assay; conditions: read-out: Activity
[4] = system: SNB-19; experiment: Growth inhibition of human SNB19 cells assessed as growth inhibition at 10 uM by sulforhodamine B assay; conditions: read-out: GI
[5] = system: HOP-62; experiment: Growth inhibition of human HOP62 cells assessed as growth inhibition at 10 uM by sulforhodamine B assay; conditions: read-out: GI
[6] = system: UO-31; experiment: Growth inhibition of human UO31 cells assessed as growth inhibition at 10 uM by sulforhodamine B assay; conditions: read-out: GI
[7] = system: UACC-257; experiment: Growth inhibition of human UACC257 cells assessed as cell growth at 10 uM by sulforhodamine B assay; conditions: read-out: Activity
[8] = system: 786-0; experiment: Growth inhibition of human 786-0 cells assessed as growth inhibition at 10 uM by sulforhodamine B assay; conditions: read-out: GI
[9] = system: SF-268; experiment: Growth inhibition of human SF268 cells assessed as growth inhibition at 10 uM by sulforhodamine B assay; conditions: read-out: GI
[10] = system: U-251; experiment: Growth inhibition of human U251 cells assessed as growth inhibition at 10 uM by sulforhodamine B assay; conditions: read-out: GI
[11] = system: CAKI-1; experiment: Growth inhibition of human CAKI-1 cells assessed as cell growth at 10 uM by sulforhodamine B assay; conditions: read-out: Activity
[12] = system: NCI-H522; experiment: Growth inhibition of human NCI-H522 cells assessed as growth inhibition at 10 uM by sulforhodamine B assay; conditions: read-out: GI
[13] = Growth inhibition of human NCI-ADR-RES cells assessed as growth inhibition at 10 uM by sulforhodamine B assay; conditions: read-out: GI
[14] = system: DU-145; experiment: Growth inhibition of human DU145 cells assessed as cell growth at 10 uM by sulforhodamine B assay; conditions: read-out: Activity
[15] = system: SF-295; experiment: Growth inhibition of human SF295 cells assessed as growth inhibition at 10 uM by sulforhodamine B assay; conditions: read-out: GI
[16] = system: U-251; experiment: Growth inhibition of human U251 cells assessed as cell growth at 10 uM by sulforhodamine B assay; conditions: read-out: Activity
[17] = system: HCT-116; experiment: Growth inhibition of human HCT116 cells assessed as growth inhibition at 10 uM by sulforhodamine B assay; conditions: read-out: GI
[18] = system: MDA-MB-231; experiment: Growth inhibition of human MDA-MB-231 cells assessed as growth inhibition at 10 uM by sulforhodamine B assay; conditions: read-out: GI
[19] = system: SK-OV-3; experiment: Growth inhibition of human SKOV3 cells assessed as cell growth at 10 uM by sulforhodamine B assay; conditions: read-out: Activity
[20] = system: SK-MEL-28; experiment: Growth inhibition of human SK-MEL-28 cells assessed as cell growth at 10 uM by sulforhodamine B assay; conditions: read-out: Activity
[21] = system: ACHN; experiment: Growth inhibition of human ACHN cells assessed as growth inhibition at 10 uM by sulforhodamine B assay; conditions: read-out: GI
[22] = system: A549; experiment: Growth inhibition of human A549/ATCC cells assessed as growth inhibition at 10 uM by sulforhodamine B assay; conditions: read-out: GI
[23] = system: KM12; experiment: Growth inhibition of human KM12 cells assessed as growth inhibition at 10 uM by sulforhodamine B assay; conditions: read-out: GI
[24] = system: A498; experiment: Growth inhibition of human A498 cells assessed as growth inhibition at 10 uM by sulforhodamine B assay; conditions: read-out: GI
[25] = system: T47D; experiment: Growth inhibition of human T47D cells assessed as cell growth at 10 uM by sulforhodamine B assay; conditions: read-out: Activity
[26] = system: NCI-H226; experiment: Growth inhibition of human NCI-H226 cells assessed as cell growth at 10 uM by sulforhodamine B assay; conditions: read-out: Activity
[27] = system: SK-MEL-2; experiment: Growth inhibition of human SK-MEL-2 cells assessed as cell growth at 10 uM by sulforhodamine B assay; conditions: read-out: Activity
[28] = system: NCI-H23; experiment: Growth inhibition of human NCI-H23 cells assessed as cell growth at 10 uM by sulforhodamine B assay; conditions: read-out: Activity
[29] = system: SK-MEL-28; experiment: Growth inhibition of human SK-MEL-28 cells assessed as growth inhibition at 10 uM by sulforhodamine B assay; conditions: read-out: GI
[30] = system: MDA-MB-435; experiment: Growth inhibition of human MDA-MB-435 cells assessed as growth inhibition at 10 uM by sulforhodamine B assay; conditions: read-out: GI
[31] = system: MCF7; experiment: Growth inhibition of human MCF7 cells assessed as cell growth at 10 uM by sulforhodamine B assay; conditions: read-out: Activity
[32] = Growth inhibition of human Hs 578T cells assessed as cell growth at 10 uM by sulforhodamine B assay; conditions: read-out: Activity
[33] = system: NCI-H322M; experiment: Growth inhibition of human NCI-H322M cells assessed as cell growth at 10 uM by sulforhodamine B assay; conditions: read-out: Activity
[34] = system: OVCAR-5; experiment: Growth inhibition of human OVCAR5 cells assessed as cell growth at 10 uM by sulforhodamine B assay; conditions: read-out: Activity
[35] = system: CAKI-1; experiment: Growth inhibition of human CAKI-1 cells assessed as growth inhibition at 10 uM by sulforhodamine B assay; conditions: read-out: GI
[36] = system: HL-60(TB); experiment: Growth inhibition of human HL-60(TB) cells assessed as cell growth at 10 uM by sulforhodamine B assay; conditions: read-out: Activity
[37] = system: BT-549; experiment: Growth inhibition of human BT549 cells assessed as cell growth at 10 uM by sulforhodamine B assay; conditions: read-out: Activity
[38] = system: SN12C; experiment: Growth inhibition of human SN12C cells assessed as growth inhibition at 10 uM by sulforhodamine B assay; conditions: read-out: GI
[39] = system: NCI-H522; experiment: Growth inhibition of human NCI-H522 cells assessed as cell growth at 10 uM by sulforhodamine B assay; conditions: read-out: Activity
[40] = system: MDA-MB-468; experiment: Growth inhibition of human MDA-MB-468 cells assessed as cell growth at 10 uM by sulforhodamine B assay; conditions: read-out: Activity
[41] = system: TK-10; experiment: Growth inhibition of human TK10 cells assessed as cell growth at 10 uM by sulforhodamine B assay; conditions: read-out: Activity
[42] = system: SK-OV-3; experiment: Growth inhibition of human SKOV3 cells assessed as growth inhibition at 10 uM by sulforhodamine B assay; conditions: read-out: GI
[43] = system: SF-539; experiment: Growth inhibition of human SF539 cells assessed as growth inhibition at 10 uM by sulforhodamine B assay; conditions: read-out: GI
[44] = system: SW-620; experiment: Growth inhibition of human SW620 cells assessed as cell growth at 10 uM by sulforhodamine B assay; conditions: read-out: Activity
[45] = system: MOLT-4; experiment: Growth inhibition of human MOLT4 cells assessed as growth inhibition at 10 uM by sulforhodamine B assay; conditions: read-out: GI
[46] = system: MDA-MB-468; experiment: Growth inhibition of human MDA-MB-468 cells assessed as growth inhibition at 10 uM by sulforhodamine B assay; conditions: read-out: GI
[47] = system: HCT-15; experiment: Growth inhibition of human HCT15 cells assessed as cell growth at 10 uM by sulforhodamine B assay; conditions: read-out: Activity
[48] = system: A549; experiment: Growth inhibition of human A549/ATCC cells assessed as cell growth at 10 uM by sulforhodamine B assay; conditions: read-out: Activity
[49] = system: COLO 205; experiment: Growth inhibition of human COLO205 cells assessed as cell growth at 10 uM by sulforhodamine B assay; conditions: read-out: Activity

With CC1(C)C[C@@H](O)[C@]2(C(=O)O)CC[C@]3(C)C(=CC[C@@H]4[C@@]5(C)C/C(=C\C=C\c6ccccc6)C(=O)C(C)(C)[C@@H]5CC[C@]43C)[C@@H]2C1 the inhibition of growth at 10 µM [1] was 28.8%, the growth at 10 µM [2] was 19.9% and the growth at 10 µM [3] was 45.5%. For the same compound, the inhibition of growth at 10 µM [4] was 26.6%, the inhibition of growth at 10 µM [5] was 37.2% and the inhibition of growth at 10 µM [6] was 59.7%. The growth at 10 µM [7] was 62%, the inhibition of growth at 10 µM [8] was 21.9% and the inhibition of growth at 10 µM [9] was 29.3%. It also gave an inhibition of growth at 10 µM [10] of 66.4%, a growth at 10 µM [11] of 43% and an inhibition of growth at 10 µM [12] of 52.3%. It also gave an inhibition of growth at 10 µM [13] of 23.8%, a growth at 10 µM [14] of 71.2% and an inhibition of growth at 10 µM [15] of 76.5%. For the same compound, the growth at 10 µM [16] was 33.6%, the inhibition of growth at 10 µM [17] was 82.5% and the inhibition of growth at 10 µM [18] was 31.1%. For the same compound, the growth at 10 µM [19] was 85.7%, the growth at 10 µM [20] was 74.2% and the inhibition of growth at 10 µM [21] was 58.1%. The inhibition of growth at 10 µM [22] was 77.3%, the inhibition of growth at 10 µM [23] was 68.2% and the inhibition of growth at 10 µM [24] was < 10%. For the same compound, the growth at 10 µM [25] was 37.6%, the growth at 10 µM [26] was 72.3% and the growth at 10 µM [27] was 64.6%. For the same compound, the growth at 10 µM [28] was 59.7%, the inhibition of growth at 10 µM [29] was 25.8% and the inhibition of growth at 10 µM [30] was 27.7%. It also gave a growth at 10 µM [31] of 33.8%, a growth at 10 µM [32] of 58.4% and a growth at 10 µM [33] of 71.9%. For the same compound, the growth at 10 µM [34] was 104%, the inhibition of growth at 10 µM [35] was 57% and the growth at 10 µM [36] was 38.8%. It also gave a growth at 10 µM [37] of 70%, an inhibition of growth at 10 µM [38] of 54.5% and a growth at 10 µM [39] of 47.7%. The growth at 10 µM [40] was 72.6%, the growth at 10 µM [41] was 88.3% and the inhibition of growth at 10 µM [42] was 14.3%. The inhibition of growth at 10 µM [43] was < 10%, the growth at 10 µM [44] was 55.8% and the inhibition of growth at 10 µM [45] was 55.6%. The inhibition of growth at 10 µM [46] was 27.4%, the growth at 10 µM [47] was 35.2% and the growth at 10 µM [48] was 22.7%. For the same compound, the growth at 10 µM [49] was 97.8%.
